Measured values taken from ChEMBL document CHEMBL4507258 (2021).

Assays:
[1] = target: Histamine H4 receptor (Homo sapiens) (UniProt Q9H3N8); conditions: Compound concentration 10.0 uM
[2] = target: Phosphatidylinositol 5-phosphate 4-kinase type-2 beta (Homo sapiens) (UniProt P78356); conditions: Compound concentration 1000.0 nM
[3] = target: Non-receptor tyrosine-protein kinase TYK2 (Homo sapiens) (UniProt P29597); conditions: Compound concentration 1000.0 nM
[4] = target: Platelet-derived growth factor receptor alpha (Homo sapiens) (UniProt P16234); conditions: Compound concentration 1000.0 nM
[5] = target: Serine/threonine-protein kinase LATS2 (Homo sapiens) (UniProt Q9NRM7); conditions: Compound concentration 1000.0 nM
[6] = system: Phosphatidylinositol 4,5-bisphosphate 3-kinase catalytic subunit alpha isoform (Homo sapiens), P42336 [M1043I]; conditions: Compound concentration 1000.0 nM
[7] = target: Serine/threonine-protein kinase OSR1 (Homo sapiens) (UniProt O95747); conditions: Compound concentration 1000.0 nM
Chain of Serine/threonine-protein kinase OSR1 (Homo sapiens) (O95747 2-527 limits assumed): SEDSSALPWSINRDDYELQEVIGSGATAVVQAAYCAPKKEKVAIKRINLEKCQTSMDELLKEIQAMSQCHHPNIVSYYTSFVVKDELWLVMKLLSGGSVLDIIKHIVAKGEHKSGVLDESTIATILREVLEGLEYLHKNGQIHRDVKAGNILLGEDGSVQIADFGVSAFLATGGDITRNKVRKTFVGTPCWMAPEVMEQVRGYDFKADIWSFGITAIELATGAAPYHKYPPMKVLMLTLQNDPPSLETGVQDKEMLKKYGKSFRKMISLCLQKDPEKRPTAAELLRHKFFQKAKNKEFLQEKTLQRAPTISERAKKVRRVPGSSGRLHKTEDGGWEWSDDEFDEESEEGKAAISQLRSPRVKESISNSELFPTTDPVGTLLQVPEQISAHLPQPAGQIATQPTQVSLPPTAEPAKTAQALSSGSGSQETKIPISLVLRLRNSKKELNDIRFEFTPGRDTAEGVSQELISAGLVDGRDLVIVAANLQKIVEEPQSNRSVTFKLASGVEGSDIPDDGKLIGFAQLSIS

[8] = system: Tyrosine-protein kinase ABL1 (Homo sapiens), P00519 [Q252H]; conditions: Compound concentration 1000.0 nM
[9] = target: Calcium/calmodulin-dependent protein kinase type II subunit alpha (Homo sapiens) (UniProt Q9UQM7); conditions: Compound concentration 1000.0 nM
[10] = target: MAP kinase-activated protein kinase 5 (Homo sapiens) (UniProt Q8IW41); conditions: Compound concentration 1000.0 nM
[11] = target: Serine/threonine-protein kinase haspin (Homo sapiens) (UniProt Q8TF76); conditions: Compound concentration 1000.0 nM
[12] = target: Casein kinase II subunit alpha (Homo sapiens) (UniProt P68400); conditions: Compound concentration 1000.0 nM
[13] = target: G protein-coupled receptor kinase 4 (Homo sapiens) (UniProt P32298); conditions: Compound concentration 1000.0 nM
[14] = target: STE20-like serine/threonine-protein kinase (Homo sapiens) (UniProt Q9H2G2); conditions: Compound concentration 1000.0 nM
[15] = target: Death-associated protein kinase 3 (Homo sapiens, UniProt O43293); conditions: Compound concentration 1000.0 nM
[16] = target: Serine/threonine-protein kinase TNNI3K (Homo sapiens) (UniProt Q59H18); conditions: Compound concentration 1000.0 nM
Chain of Serine/threonine-protein kinase TNNI3K (Homo sapiens) (Q59H18 whole entry): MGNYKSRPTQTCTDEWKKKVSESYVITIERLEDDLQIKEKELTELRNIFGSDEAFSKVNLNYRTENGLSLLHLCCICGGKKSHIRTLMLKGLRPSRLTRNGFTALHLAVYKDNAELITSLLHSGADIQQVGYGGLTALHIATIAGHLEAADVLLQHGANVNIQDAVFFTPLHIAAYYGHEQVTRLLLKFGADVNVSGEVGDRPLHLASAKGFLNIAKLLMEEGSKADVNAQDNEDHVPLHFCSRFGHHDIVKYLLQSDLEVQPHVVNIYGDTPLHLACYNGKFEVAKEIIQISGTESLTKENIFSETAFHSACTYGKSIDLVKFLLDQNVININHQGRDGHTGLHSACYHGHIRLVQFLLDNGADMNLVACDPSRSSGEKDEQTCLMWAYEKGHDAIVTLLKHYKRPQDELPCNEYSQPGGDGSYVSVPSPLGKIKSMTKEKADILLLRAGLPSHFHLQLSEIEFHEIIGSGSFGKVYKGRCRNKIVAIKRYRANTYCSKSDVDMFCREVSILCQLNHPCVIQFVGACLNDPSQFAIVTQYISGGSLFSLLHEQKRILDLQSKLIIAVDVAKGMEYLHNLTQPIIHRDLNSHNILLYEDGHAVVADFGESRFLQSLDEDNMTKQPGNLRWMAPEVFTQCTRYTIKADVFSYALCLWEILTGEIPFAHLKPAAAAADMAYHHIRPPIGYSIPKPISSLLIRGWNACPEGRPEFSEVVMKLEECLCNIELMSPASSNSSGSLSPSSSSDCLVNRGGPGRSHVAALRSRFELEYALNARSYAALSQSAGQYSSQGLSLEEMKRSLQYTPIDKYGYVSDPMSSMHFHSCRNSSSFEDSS

[17] = target: TRAF2 and NCK-interacting protein kinase (Homo sapiens) (UniProt Q9UKE5); conditions: Compound concentration 1000.0 nM
Chain of TRAF2 and NCK-interacting protein kinase (Homo sapiens) (Q9UKE5 whole entry, looked up): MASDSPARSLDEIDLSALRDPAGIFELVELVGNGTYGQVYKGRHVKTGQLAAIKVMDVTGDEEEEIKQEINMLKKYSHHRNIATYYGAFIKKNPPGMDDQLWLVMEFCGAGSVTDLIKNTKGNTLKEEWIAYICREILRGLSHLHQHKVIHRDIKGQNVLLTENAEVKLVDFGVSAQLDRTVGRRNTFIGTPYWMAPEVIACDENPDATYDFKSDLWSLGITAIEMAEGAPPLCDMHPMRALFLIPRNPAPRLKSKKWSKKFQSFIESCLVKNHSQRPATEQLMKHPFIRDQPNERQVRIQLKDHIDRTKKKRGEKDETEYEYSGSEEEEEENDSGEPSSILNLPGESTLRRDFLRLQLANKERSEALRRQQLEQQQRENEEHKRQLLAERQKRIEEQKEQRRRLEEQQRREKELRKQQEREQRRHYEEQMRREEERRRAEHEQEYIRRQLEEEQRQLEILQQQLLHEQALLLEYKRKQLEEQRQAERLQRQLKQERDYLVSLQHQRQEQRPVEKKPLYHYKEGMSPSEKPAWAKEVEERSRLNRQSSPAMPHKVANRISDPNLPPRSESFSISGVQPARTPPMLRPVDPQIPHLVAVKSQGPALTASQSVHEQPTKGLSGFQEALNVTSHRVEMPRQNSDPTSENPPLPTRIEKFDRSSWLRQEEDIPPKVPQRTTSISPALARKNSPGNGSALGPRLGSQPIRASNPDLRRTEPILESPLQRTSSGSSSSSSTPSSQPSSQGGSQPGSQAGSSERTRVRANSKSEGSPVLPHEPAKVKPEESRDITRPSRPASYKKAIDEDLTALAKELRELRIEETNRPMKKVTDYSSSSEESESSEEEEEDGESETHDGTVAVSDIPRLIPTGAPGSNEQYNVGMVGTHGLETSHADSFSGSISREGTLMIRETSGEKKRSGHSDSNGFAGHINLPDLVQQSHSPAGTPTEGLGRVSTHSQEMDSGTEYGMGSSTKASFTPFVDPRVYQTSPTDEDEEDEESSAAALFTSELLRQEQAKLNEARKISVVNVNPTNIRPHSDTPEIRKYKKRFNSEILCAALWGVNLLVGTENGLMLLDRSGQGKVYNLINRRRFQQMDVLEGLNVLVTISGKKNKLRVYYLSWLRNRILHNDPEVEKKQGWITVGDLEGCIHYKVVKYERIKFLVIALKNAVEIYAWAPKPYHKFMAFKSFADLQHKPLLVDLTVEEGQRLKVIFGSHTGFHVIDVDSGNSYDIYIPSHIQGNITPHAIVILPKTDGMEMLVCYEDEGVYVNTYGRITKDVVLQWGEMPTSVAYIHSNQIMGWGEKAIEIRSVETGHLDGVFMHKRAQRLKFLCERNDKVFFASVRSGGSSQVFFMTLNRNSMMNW

[18] = target: Mitogen-activated protein kinase 12 (Homo sapiens) (UniProt P53778); conditions: Compound concentration 1000.0 nM
[19] = target: Mitogen-activated protein kinase kinase kinase 15 (Homo sapiens) (UniProt Q6ZN16); conditions: Compound concentration 1000.0 nM
[20] = target: Tyrosine-protein kinase Lyn (Homo sapiens) (UniProt P07948); conditions: Compound concentration 1000.0 nM
Chain of Tyrosine-protein kinase Lyn (Homo sapiens) (P07948 2-512 limits assumed): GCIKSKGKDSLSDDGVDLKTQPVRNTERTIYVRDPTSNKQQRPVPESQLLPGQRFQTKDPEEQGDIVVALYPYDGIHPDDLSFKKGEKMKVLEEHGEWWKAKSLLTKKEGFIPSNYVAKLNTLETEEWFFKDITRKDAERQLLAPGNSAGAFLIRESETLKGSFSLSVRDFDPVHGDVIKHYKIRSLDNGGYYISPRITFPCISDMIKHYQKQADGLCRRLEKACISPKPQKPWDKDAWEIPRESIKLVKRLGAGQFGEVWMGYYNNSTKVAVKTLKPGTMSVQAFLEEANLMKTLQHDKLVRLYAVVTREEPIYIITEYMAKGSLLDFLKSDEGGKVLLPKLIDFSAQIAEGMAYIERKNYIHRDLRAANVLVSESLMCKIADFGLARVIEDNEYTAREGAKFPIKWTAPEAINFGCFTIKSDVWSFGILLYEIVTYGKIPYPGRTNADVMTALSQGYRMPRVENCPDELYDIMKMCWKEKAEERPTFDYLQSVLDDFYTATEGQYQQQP

[21] = target: Rho-associated protein kinase 1 (Homo sapiens) (UniProt Q13464); conditions: Compound concentration 1000.0 nM
[22] = target: RAC-gamma serine/threonine-protein kinase (Homo sapiens) (UniProt Q9Y243); conditions: Compound concentration 1000.0 nM
[23] = target: Phosphatidylinositol 4-phosphate 5-kinase type-1 alpha (Homo sapiens) (UniProt Q99755); conditions: Compound concentration 1000.0 nM
[24] = target: Beta-adrenergic receptor kinase 1 (Homo sapiens) (UniProt P25098); conditions: Compound concentration 1000.0 nM
Chain of Beta-adrenergic receptor kinase 1 (Homo sapiens) (P25098 whole entry): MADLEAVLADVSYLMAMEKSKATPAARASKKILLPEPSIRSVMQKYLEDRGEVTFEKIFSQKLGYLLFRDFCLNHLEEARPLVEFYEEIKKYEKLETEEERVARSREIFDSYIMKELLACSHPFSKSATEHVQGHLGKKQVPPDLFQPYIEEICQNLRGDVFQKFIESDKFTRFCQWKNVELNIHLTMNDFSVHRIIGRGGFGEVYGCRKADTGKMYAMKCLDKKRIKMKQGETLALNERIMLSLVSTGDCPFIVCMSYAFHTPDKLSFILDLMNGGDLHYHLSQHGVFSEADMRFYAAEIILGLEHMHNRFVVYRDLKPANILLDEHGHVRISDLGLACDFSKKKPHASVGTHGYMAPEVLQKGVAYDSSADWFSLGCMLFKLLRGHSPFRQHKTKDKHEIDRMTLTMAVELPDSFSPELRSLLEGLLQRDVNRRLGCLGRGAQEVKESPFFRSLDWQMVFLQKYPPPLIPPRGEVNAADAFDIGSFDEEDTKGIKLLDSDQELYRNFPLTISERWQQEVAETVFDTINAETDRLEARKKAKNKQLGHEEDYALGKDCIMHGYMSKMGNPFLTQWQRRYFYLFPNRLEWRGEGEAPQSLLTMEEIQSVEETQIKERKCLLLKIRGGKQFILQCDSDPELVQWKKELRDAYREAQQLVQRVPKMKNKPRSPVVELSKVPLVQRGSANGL

[25] = target: Muscle, skeletal receptor tyrosine-protein kinase (Homo sapiens) (UniProt O15146); conditions: Compound concentration 1000.0 nM
[26] = system: Tyrosine-protein kinase ABL1 (Homo sapiens), P00519 [T315I]; conditions: Compound concentration 1000.0 nM
[27] = target: Macrophage colony-stimulating factor 1 receptor (Homo sapiens) (UniProt P07333); conditions: Compound concentration 1000.0 nM
[28] = target: Ribosomal protein S6 kinase alpha-3 (Homo sapiens) (UniProt P51812); conditions: Compound concentration 1000.0 nM
[29] = target: 5'-AMP-activated protein kinase catalytic subunit alpha-1 (Homo sapiens) (UniProt Q13131); conditions: Compound concentration 1000.0 nM
[30] = target: MAP/microtubule affinity-regulating kinase 3 (Homo sapiens) (UniProt P27448); conditions: Compound concentration 1000.0 nM
[31] = target: LIM domain kinase 2 (Homo sapiens) (UniProt P53671); conditions: Compound concentration 1000.0 nM
[32] = target: Serine/threonine-protein kinase ULK1 (Homo sapiens) (UniProt O75385); conditions: Compound concentration 1000.0 nM
[33] = target: Dual specificity mitogen-activated protein kinase kinase 1 (Homo sapiens) (UniProt Q02750); conditions: Compound concentration 1000.0 nM
[34] = target: Mitogen-activated protein kinase kinase kinase 14 (Homo sapiens) (UniProt Q99558); conditions: Compound concentration 1000.0 nM
[35] = target: RAF proto-oncogene serine/threonine-protein kinase (Homo sapiens) (UniProt P04049); conditions: Compound concentration 1000.0 nM
[36] = target: Serine/threonine-protein kinase PAK 5 (Homo sapiens) (UniProt Q9P286); conditions: Compound concentration 1000.0 nM
[37] = target: Phosphorylase b kinase regulatory subunit alpha, liver isoform (Homo sapiens) (UniProt P46019); conditions: Compound concentration 1000.0 nM
[38] = target: Receptor tyrosine-protein kinase erbB-2 (Homo sapiens) (UniProt P04626); conditions: Compound concentration 1000.0 nM
[39] = target: Serine/threonine-protein kinase pim-2 (Homo sapiens) (UniProt Q9P1W9); conditions: Compound concentration 1000.0 nM
Chain of Serine/threonine-protein kinase pim-2 (Homo sapiens) (Q9P1W9 whole entry, looked up): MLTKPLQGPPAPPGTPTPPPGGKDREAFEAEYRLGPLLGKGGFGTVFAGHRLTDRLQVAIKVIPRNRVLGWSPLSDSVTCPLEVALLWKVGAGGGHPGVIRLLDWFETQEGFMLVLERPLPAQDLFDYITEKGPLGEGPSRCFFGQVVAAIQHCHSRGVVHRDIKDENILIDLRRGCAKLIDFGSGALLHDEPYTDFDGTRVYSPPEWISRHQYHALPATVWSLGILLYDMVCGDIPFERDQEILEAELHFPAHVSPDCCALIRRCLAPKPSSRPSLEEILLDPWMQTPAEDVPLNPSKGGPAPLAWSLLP

[40] = target: Receptor-interacting serine/threonine-protein kinase 4 (Homo sapiens) (UniProt P57078); conditions: Compound concentration 1000.0 nM
Chain of Receptor-interacting serine/threonine-protein kinase 4 (Homo sapiens) (P57078 whole entry): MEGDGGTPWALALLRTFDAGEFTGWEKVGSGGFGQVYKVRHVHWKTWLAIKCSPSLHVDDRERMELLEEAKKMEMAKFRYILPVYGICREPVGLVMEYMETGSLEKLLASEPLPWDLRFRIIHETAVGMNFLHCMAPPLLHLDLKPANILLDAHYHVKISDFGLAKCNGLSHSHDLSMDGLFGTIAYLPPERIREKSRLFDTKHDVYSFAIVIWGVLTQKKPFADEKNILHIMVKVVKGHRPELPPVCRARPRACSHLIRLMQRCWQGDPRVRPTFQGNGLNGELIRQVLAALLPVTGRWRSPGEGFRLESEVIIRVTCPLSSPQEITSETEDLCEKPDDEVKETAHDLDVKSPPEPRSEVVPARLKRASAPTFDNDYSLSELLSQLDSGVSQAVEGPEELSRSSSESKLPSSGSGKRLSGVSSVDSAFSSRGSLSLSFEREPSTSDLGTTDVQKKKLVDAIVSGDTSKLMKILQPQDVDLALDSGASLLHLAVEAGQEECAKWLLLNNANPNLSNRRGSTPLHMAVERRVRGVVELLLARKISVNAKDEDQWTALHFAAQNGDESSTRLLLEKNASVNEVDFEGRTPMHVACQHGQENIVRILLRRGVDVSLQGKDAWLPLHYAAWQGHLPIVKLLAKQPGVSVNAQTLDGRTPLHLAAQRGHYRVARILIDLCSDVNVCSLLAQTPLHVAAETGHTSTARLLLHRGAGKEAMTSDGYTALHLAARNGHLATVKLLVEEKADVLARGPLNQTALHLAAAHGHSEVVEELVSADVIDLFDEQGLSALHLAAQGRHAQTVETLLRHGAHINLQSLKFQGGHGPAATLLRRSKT

[41] = target: NUAK family SNF1-like kinase 2 (Homo sapiens) (UniProt Q9H093); conditions: Compound concentration 1000.0 nM
[42] = target: Calcium/calmodulin-dependent protein kinase type 1B (Homo sapiens, UniProt Q6P2M8); conditions: Compound concentration 1000.0 nM
[43] = target: Serine/threonine-protein kinase PLK2 (Homo sapiens) (UniProt Q9NYY3); conditions: Compound concentration 1000.0 nM
[44] = target: Alpha-1A adrenergic receptor (Homo sapiens) (UniProt P35348); conditions: Compound concentration 10.0 uM

CCCCN(CCCC)C(=O)CN1C[C@@H](c2cc(OC)c3c(c2)OCO3)[C@H](C(=O)O)[C@H]1CC(C)(C)CCC [A-545]
inactive: inhibition [1] 4.1% | residual activity [2] 59.8% | residual activity [3] 100% | residual activity [4] 100% | residual activity [5] 100% | residual activity [6] 100% | residual activity [7] 94% | residual activity [8] 94.6% | residual activity [9] 100% | residual activity [10] 100% | residual activity [11] 100% | residual activity [12] 88.6% | residual activity [13] 95.8% | residual activity [14] 92.5% | residual activity [15] 100% | residual activity [16] 95.9% | residual activity [17] 86% | residual activity [18] 100% | residual activity [19] 99% | residual activity [20] 75.1% | residual activity [21] 100% | residual activity [22] 100% | residual activity [23] 100% | residual activity [24] 97.8% | residual activity [25] 78.7% | residual activity [26] 100% | residual activity [27] 86.7% | residual activity [28] 99.2% | residual activity [29] 96.7% | residual activity [30] 93.7% | residual activity [31] 86.8% | residual activity [32] 89.2% | residual activity [33] 100% | residual activity [34] 100% | residual activity [35] 93.3% | residual activity [36] 96.6% | residual activity [37] 100% | residual activity [38] 92.1% | residual activity [39] 96.3% | residual activity [40] 77.2% | residual activity [41] 100% | residual activity [42] 100% | residual activity [43] 98.4% | inhibition [44] 23.3%

CCCCN(CCCC)C(=O)CN1C[C@H](c2cc(OC)c3c(c2)OCO3)[C@@H](C(=O)O)[C@@H]1CC(C)(C)CCC [ABT-546]
inactive: inhibition [1] -0.606% | residual activity [2] 100% | residual activity [3] 100% | residual activity [4] 56.1% | residual activity [5] 100% | residual activity [6] 83.7% | residual activity [7] 89.5% | residual activity [8] 97.7% | residual activity [9] 100% | residual activity [10] 67.9% | residual activity [11] 75.8% | residual activity [12] 68.5% | residual activity [13] 100% | residual activity [14] 100% | residual activity [15] 100% | residual activity [16] 100% | residual activity [17] 100% | residual activity [18] 100% | residual activity [19] 100% | residual activity [20] 100% | residual activity [21] 90.4% | residual activity [22] 100% | residual activity [23] 100% | residual activity [24] 71.8% | residual activity [25] 100% | residual activity [26] 100% | residual activity [27] 100% | residual activity [28] 100% | residual activity [29] 100% | residual activity [30] 98.7% | residual activity [31] 100% | residual activity [32] 79.4% | residual activity [33] 64.8% | residual activity [34] 100% | residual activity [35] 100% | residual activity [36] 93.8% | residual activity [37] 100% | residual activity [38] 95.6% | residual activity [39] 100% | residual activity [40] 85.5% | residual activity [41] 79.4% | residual activity [42] 86.5% | residual activity [43] 67.1% | inhibition [44] -2.13%
